Laboratory results: article PMC7180452, “Purine and Purine Isostere Derivatives of Ferrocene: An Evaluation of ADME, Antitumor and Electrochemical Properties” (Molecules, 2020)
Entries after “also recorded” stand apart in the source; their conditions may differ. Where two headings read alike, the source gives them in different places.

Tests used:
[1] = tested on: metastatic colorectal adenocarcinoma (SW620); assay: In vitro antiproliferative activity, SW620; format: cell-based, human; conditions: SW620 cells
Method: (§1) Antiproliferative activity of compounds 11a−11c, 12a−12c, 13a−13c, 14a−14c, 15a−15c, 16a, 23a−23c, 24a−24c, 25a−25c, 34a−34c and 35a−35c was evaluated in vitro on four human tumor cell lines (American Type Culture Collection, Manassas, VA, USA): metastatic colorectal adenocarcinoma (SW620), ductal pancreatic adenocarcinoma (CFPAC-1), hepatocellular carcinoma (HepG2) and cervical carcinoma (HeLa) as well as normal skin fibroblasts (HFF).

[2] = Chrom logD determination (fast-gradient HPLC); conditions: pH 7.4
Method: (§5) The distribution coefficient Chrom logD, a parameter used to assess the lipophilicity of compounds [36, 37], was determined for novel purine and purine isosteres with a ferrocene motif as shown in Table 1.
(§6) The distribution coefficient, Chrom logD, was determined from compounds’ gradient retention times by employing a high-performance liquid chromatography method with fast acetonitrile gradient. Compounds were prepared for analysis in final concentration of 1.25 mM by dilution of 10 mM stock solutions in DMSO with acetonitrile. Aqueous mobile phase was 50 mM ammonium acetate adjusted with ammonia solution to pH 7.4 and the organic mobile phase was acetonitrile. A reversed phase HPLC column Luna C18, 50 × 3 mm i.d., 5 µm particle size (Phenomenex, Torrance, CA, USA) was used for analysis. Sample injection volume was 2 µL and the flow rate was 1 mL min^−1. All compounds were analysed in duplicates. Fast-gradient elution was as follows: from 0 to 100% of acetonitrile (0−3 min), 100% of acetonitrile (3.0−3.5 min), from 100 to 0% of acetonitrile (3.5−3.7 min), and re-equilibration with 100% of aqueous mobile phase (3.7−5.0 min). All measurements were performed on an HPLC-DAD instrument Agilent 1100 Series (Agilent Technologies, Santa Clara, CA, USA) coupled with a mass spectrometer Micromass Quattro API (Waters, MA, USA). MassLynx software, version 4.1 (Waters, Manchester, UK) was used for data acquisition and processing. Before compound analysis, a calibration step was performed. A set of standard compounds with literature CHI values [36] were plotted against gradient retention times to obtain a calibration equation, which was used to determine CHI value from the compounds’ retention times.

[3] = Metabolic stability in human liver microsomes; format: in vitro ADME; conditions: for t1/2: 1 µM; for In Vivo CLh (% LBF) / In Vivo CLh: human; for In Vivo CLh (% LBF): predicted, % of liver blood flow; for In Vivo CLh: predicted in vivo hepatic clearance
Method: (§2) Metabolic stability of compounds was assessed in human and mouse liver microsomes (Corning, Tewksbury, MA, USA). Compounds, in final concentration of 1 µM, were incubated in phosphate buffer (50 mM, pH 7.4) for 60 min at 37 °C together with liver microsomes and NADPH generating system (nicotinamide adenine dinucleotide phosphate (NADP, 0.5 mM), glucose-6-phosphate (G6P, 5 mM), glucose-6-phosphate dehydrogenase (1.5 U mL^−1) and magnesium chloride (0.5 mM)). Also, compounds were incubated without the presence of NADPH cofactor, as a buffer stability control. Metabolic activity of liver microsomes was verified by including testosterone and propranolol as positive controls, as well as caffeine as a negative control. Sampling was performed at six time points (0, 10, 20, 30, 45 and 60 min), followed by reaction termination by addition of acetonitrile/methanol mixture (2:1, v/v) containing dicofenac as internal standard. Samples were analyzed as previously described for samples from permeability assay. The in vitro half-life (t1/2) was calculated from the slope of the linear regression by plotting ln % remaining of parent compound against incubation time. In vitro intrinsic clearance, CLint was calculated from half-life using following Equation (3):(3) CLint [µL min^−1 mg^−1]=ln2/t1/2×mL per incubation/mg protein per incubation where 52.5 mg protein/g liver is used as a constant.
(§3) Predicted in vivo hepatic clearance, in vivo CLh was calculated as follows:(4) in vivo CLh [mL min^−1 kg^−1]=CLint×(mg protein/g liver)×Q×(LW/BW) /Q+(CLint×(mg protein/g liver)×(LW/BW)) where: LW/BW = liver weight/body weight [g kg^−1]; 25.7 (human), 87.5 (mouse); Q = LBF = liver blood flow [mL min^−1 kg^−1]; 21/1.26 (human), 131/7.86 (mouse).
(§4) Predicted in vivo hepatic clearance can be expressed as %LBF and calculated as follows:(5) in vivo CLh [%LBF]=in vivo CLh/LBF×100

[4] = Metabolic stability in mouse liver microsomes; format: in vitro ADME; conditions: for t1/2: mouse liver microsomes, 1 µM; for In Vivo CLh (% LBF) / In Vivo CLh: mouse; for In Vivo CLh (% LBF): predicted, % of liver blood flow; for In Vivo CLh: predicted in vivo hepatic clearance
Method: as §2, §3, §4

[5] = Turbidimetric kinetic solubility assay; conditions: for Kinetic Solubility: PBS, 1% DMSO, 37 °C, 2 h, estimated range
Method: The turbidimetric solubility assay, which allows a rapid determination of the kinetic solubility of newly synthesized compounds using small amounts of their DMSO solutions, was used to assess the kinetic solubility [38].
The compounds’ DMSO stock solutions in concentration of 10 mM were serially diluted by factor 3.3×, 3×, 3.3× and 3× in DMSO. Prepared solutions were spiked into phosphate-buffered saline (PBS, 100 mM) to obtain final compounds’ concentrations of 100, 30, 10, 3 and 1 µM (3 µL of prepared dilutions were spiked to 297 µL of PBS, with final DMSO content of 1%, v/v). All compounds were tested in two replicas per concentration. Prepared solutions were incubated at 37 °C for 2 h with gentle shaking. Blank solutions were also prepared by spiking DMSO in PBS buffer (1% of DMSO, v/v). […] Compound/control samples are compared to the blank solution. […] Results were expressed as an estimated solubility range (lower and upper bound).

[6] = tested on: hepatocellular carcinoma (HepG2); assay: In vitro antiproliferative activity, HepG2; format: cell-based, human; conditions: HepG2 cells
Method: as §1

[7] = tested on: ductal pancreatic adenocarcinoma (CFPAC-1); assay: In vitro antiproliferative activity, CFPAC-1; format: cell-based, human; conditions: CFPAC-1 cells
Method: as §1

[8] = tested on: normal skin fibroblasts (HFF); assay: Cytotoxicity on non-tumor cells, HFF; format: cell-based, human
Method: as §1

MDCKII-hMDR1 cells = assay: Permeability and P-gp substrate assessment in MDCKII-hMDR1 cell monolayer; format: in vitro ADME, canine; conditions: for Permeability classification: MDCKII-hMDR1, in words; for Efflux Ratio (BA/AB) / Papp (AB) / Papp (BA): without P-gp inhibitor; for Papp (AB) / Papp (BA): 10 µM, 60 min
Method: The Madin-Darby canine kidney cells with overexpressed human multidrug-resistant gene (MDCKII-hMDR1) have been frequently used to study bidirectional transport of compounds and assess P-gp substrate potential. Apparent permeability (Papp) values were determined from the amount permeated through the MDCKII-hMDR1 cell monolayer in both the apical-basolateral (AB) and basolateral-apical (BA) direction.
MDCKII-hMDR1 cell monolayer was used for determination of permeability and P-gp substrate assessment. MDCKII-hMDR1 cells (Solvo Biotechnology, Szeged, Hungary) were grown in the controlled atmosphere (37 °C, 95% humidity, 5% CO2) in MDCK cell culture medium containing Dulbecco’s Modified Eagle Medium (DMEM) + 10% Fetal bovine serum (FBS, inactivated) + 1% glutamax-100 + 1% antibiotic/antimycotic + 1% of Non-essential amino acids Minimum Essential Medium (MEM NEAA). Cultures were split every 3–4 days using 0.05% Trypsin-EDTA. Cells were seeded 4 days prior to the experiment in concentration of 0.3 × 10^6 cells mL^−1 and cultured in CO2 incubator. On the experiment day, cell monolayers were washed with Dulbecco’s phosphate buffer saline (D-PBS) and equilibrated for 45 min in CO2 incubator in D-PBS containing 1% DMSO (1% v/v) with or without Elacridar (2 µM). Compounds, in final concentration of 10 µM, were prepared in transport medium containing Lucifer yellow (100 µM), with DMSO contentment of 1% (v/v) and in the presence and without Elacridar. Lucifer yellow calibration curve was prepared by serial dilution (12 points, with 100 µM as the highest point). Monolayer integrity was examined by fluorescent measurement on a Microplate reader Infinite F500 (Tecan) by using an excitation of 485 nm and emission of 530 nm. Experiment was started by applying the solutions containing test compounds to apical and basolateral side of the cell monolayer. Starting compound concentration (C0) was sampled at the start of the experiment and apical and basolateral compartments were sampled after incubation at 37 °C with gentle shaking for 60 min. Compound were tested in duplicate. Amprenavir was used as a control with low permeability and as a P-gp substrate without inhibitor presence, turning into a highly permeable compound with the inhibitor present.
Samples were analyzed on an ABSciex API 4000 Triple Quadrupole Mass Spectrometer (Sciex, Division of MDS Inc., Toronto, ON, Canada) coupled to a UHPLC Nexera X2 (Shimadzu, Kyoto, Japan). Samples (1 µL) were injected onto a reversed phase HPLC column Luna Omega Polar C18, 30 × 2.1 mm i.d., 1.6 µm particle size (Phenomenex) which was kept at 50 °C. Aqueous solution was 0.1% formic acid in deionized water and the organic mobile phase was […]. Flow rate was kept at 0.7 mL min^−1 for all measurements. Fast-gradient elution was as follows: 2% of organic mobile phase through 0.15 min, from 2 to 95% of organic mobile phase (0.15−0.7 min), 95% of organic mobile phase (0.7−1.1 min), from 95 to 2% of organic mobile phase (1.1−1.11 min), and re-equilibration with 98% of aqueous mobile phase (1.11−1.5 min). Positive ion mode with turbo spray, an ion source temperature of 550 °C and a dwell time of 75 ms were utilized for mass spectrometric detection. Quantitation was performed using multiple reaction monitoring (MRM) at the specific transition corresponding to the compound of interest. Warfarin was used as an internal standard. The ratios between compound and internal standard peak areas were used instead of real compound concentration. Apparent permeability coefficient, Papp (nm s^−1) values were calculated by using the following Equation (1):Papp [nm s^−1] = (dQ/dT) × (1/C0) × (1/A)(1) where: dQ/dT = permeability rate; C0 = initial concentration in donor compartment; A = surface area of the cell monolayer (0.7 cm^2). […]

[9] = tested on: cervical carcinoma (HeLa); assay: In vitro antiproliferative activity, HeLa; format: cell-based, human; conditions: HeLa cells
Method: as §1

[10] = pH 7.4
Method: as §5, §6

Row | SMILES | IC50 [1] | Chrom logD [2] | t1/2 ([3]; human liver microsomes) | In Vivo CLh (% LBF) [3] | t1/2 [4] | In Vivo CLh (% LBF) [4] | Kinetic Solubility [5] | IC50 [6] | IC50 [7] | Permeability classification (MDCKII-hMDR1 cells) | Efflux Ratio (BA/AB) (MDCKII-hMDR1 cells) | Papp (AB) (MDCKII-hMDR1 cells) | Papp (BA) (MDCKII-hMDR1 cells) | IC50 [9] | In Vivo CLh [3] | In Vivo CLh [4] | Metabolic stability classification ([3]; human liver microsomes, in words) | Solubility classification ([5]; kinetic solubility, in words) | Chrom logD [10] | IC50 [8]
1 | Clc1ncnc2c1ccn2Cc1cn(C[c-]2cccc2)nn1.[Fe+2].c1cc[cH-]c1 [Compound 11a, 4-Chloro-7-[1-(1-ferrocenymethyl-1,2,3-triazol-4-yl)methyl]-7H-pyrrolo[2,3-d]pyrimidine] | 31.6 ± 0.84 µM | 5.62 | 7.8 min | 90 % LBF | 4.4 min | 98 % LBF | <1 µM | 42 ± 5.93 µM | 32.9 ± 2.46 µM | moderate to high AB permeability | 2.2 | 8.4 ×10⁻⁶ cm/s | 18 ×10⁻⁶ cm/s | 38.2 ± 2.3 µM | – | – | – | – | – | 8.57 ± 1.95 µM
2 | CC([c-]1cccc1)n1cc(Cn2ccc3c(Cl)ncnc32)nn1.[Fe+2].c1cc[cH-]c1 (centres unmarked) [Compound 11b, 4-Chloro-7-[1-(1-ferrocenyl-1-methylmethyl-1,2,3-triazol-4-yl)methyl]-7H-pyrrolo[2,3-d] pyrimidine] | 32 ± 0.34 µM | 5.94 | 2.3 min | 97 % LBF | – | 100 % LBF | 3 to 10 µM | 34.5 ± 1.36 µM | 31.3 ± 4.51 µM | high permeability | 1.5 | 11.8 ×10⁻⁶ cm/s | 17.4 ×10⁻⁶ cm/s | 31.4 ± 1.04 µM | 24.9 mL/min/kg | 25.7 mL/min/kg | – | – | – | 8.88 ± 3.46 µM
3 | Clc1ncnc2ncn(Cc3cn(C[c-]4cccc4)nn3)c12.[Fe+2].c1cc[cH-]c1 [Compound 15a, 6-Chloro-7-[1-(1-ferrocenymethyl-1,2,3-triazol-4-yl)methyl]-7H-purine] | 27.2 ± 5.3 µM | 3.82 | 51.9 min | 58 % LBF | 8.8 min | 97 % LBF | >100 µM | 36 ± 1.81 µM | 34.4 ± 0.43 µM | moderate AB permeability; also recorded: good permeability | 7.0 | 4.8 ×10⁻⁶ cm/s | 33.5 ×10⁻⁶ cm/s | 28.6 ± 8.28 µM | 15.0 mL/min/kg | 24.8 mL/min/kg | moderate stability | high solubility | – | 13.8 ± 4.17 µM

Further lines, with some results ahead:

Row | IC50 [1] | Chrom logD [2] | t1/2 ([3]; human liver microsomes) | In Vivo CLh (% LBF) [3] | t1/2 [4] | In Vivo CLh (% LBF) [4] | Kinetic Solubility [5] | IC50 [6] | IC50 [7] | Permeability classification (MDCKII-hMDR1 cells) | Efflux Ratio (BA/AB) (MDCKII-hMDR1 cells) | Papp (AB) (MDCKII-hMDR1 cells) | Papp (BA) (MDCKII-hMDR1 cells) | IC50 [9] | In Vivo CLh [3] | In Vivo CLh [4] | Metabolic stability classification ([3]; human liver microsomes, in words) | Solubility classification ([5]; kinetic solubility, in words) | Chrom logD [10] | SMILES | IC50 [8]
4 | 97 ± 13.6 µM | – | – | – | – | – | – | 59.9 ± 10.9 µM | 64.6 ± 12.2 µM | – | – | – | – | > 100 µM | – | – | – | – | 4.56 | [Fe+2].c1cc[cH-]c1.c1ccc2c(c1)ncn2Cc1cn(C[c-]2cccc2)nn1 [Compound 23a, 1-[1-(1-Ferrocenylmethyl-1,2,3-triazol-4-yl)methyl]-1H-benzimidazole] | 23.8 ± 3.32 µM
5 | > 100 µM | – | – | – | – | – | – | 83.6 ± 8.61 µM | 68 ± 13.7 µM | – | – | – | – | 89.6 ± 13.7 µM | – | – | – | – | 4.84 | CC([c-]1cccc1)n1cc(Cn2cnc3ccccc32)nn1.[Fe+2].c1cc[cH-]c1 (centres unmarked) [Compound 23b, 1-[1-(1-Ferrocenyl-1-methylmethyl-1,2,3-triazol-4-yl)methyl]-1H-benzimidazole] | 31.8 ± 9.81 µM
6 | > 100 µM | – | – | – | – | – | – | > 100 µM | > 100 µM | – | – | – | – | > 100 µM | – | – | – | – | 4.45 | [Fe+2].c1cc[cH-]c1.c1ccc2c(c1)ncn2Cc1cn(-[c-]2cccc2)nn1 [Compound 23c, 1-[1-(1-Ferrocenyl-1,2,3-triazol-4-yl)methyl]-1H-benzimidazole] | > 100 µM
7 | 62 ± 8.79 µM | – | – | – | – | – | – | 53.6 ± 5.05 µM | 78 ± 6.61 µM | – | – | – | – | 68.7 ± 2.91 µM | – | – | – | – | >6.57 | [Fe+2].c1cc[cH-]c1.c1ccc2c(c1)ccn2Cc1cn(C[c-]2cccc2)nn1 [Compound 24a, 1-[1-(1-Ferrocenylmethyl-1,2,3-triazol-4-yl)methyl]-1H-indole] | 16.7 ± 8.61 µM
8 | > 100 µM | – | – | – | – | – | – | > 100 µM | 87.6 ± 1.79 µM | – | – | – | – | 89.6 ± 7.64 µM | – | – | – | – | >6.57 | CC([c-]1cccc1)n1cc(Cn2ccc3ccccc32)nn1.[Fe+2].c1cc[cH-]c1 (centres unmarked) [Compound 24b, 1-[1-(1-Ferrocenyl-1-methylmethyl-1,2,3-triazol-4-yl)methyl]-1H-indole] | > 100 µM
9 | > 100 µM | – | – | – | – | – | – | 90.9 ± 11.5 µM | 84.5 ± 15.8 µM | – | – | – | – | 88.1 ± 1.18 µM | – | – | – | – | >6.57 | [Fe+2].c1cc[cH-]c1.c1ccc2c(c1)ccn2Cc1cn(-[c-]2cccc2)nn1 [Compound 24c, 1-[1-(1-Ferrocenyl-1,2,3-triazol-4-yl)methyl]-1H-indole] | > 100 µM
10 | > 100 µM | – | – | – | – | – | – | > 100 µM | > 100 µM | – | – | – | – | 78.5 ± 9.36 µM | – | – | – | – | >6.57 | Ic1ccc2c(ccn2Cc2cn(C[c-]3cccc3)nn2)c1.[Fe+2].c1cc[cH-]c1 [Compound 25a, 5-Iodo-1-[1-(1-ferrocenylmethyl-1,2,3-triazol-4-yl)methyl]-1H-indole] | > 100 µM
